Results taken from US10766899B2, “Methods for preparing substituted imidazo[4,5-b]pyrazines” (Cytokinetics, Inc., priority 2006, dated 2020).
Several values for one entry are separate records, joined by “and”; a condition that tells them apart may be missing. Equal values may be shown once.

Columns and labels:
SKM MF = SKM MF AC1.4: ATPase of skeletal sarcomeric proteins (actin, tropomyosin, troponin complex, myosin), PK/LDH coupled enzyme system; type: biochemical; details: screen at pCa=6.5, † mean value, ‡ median value
Protocol: For example, test compounds can be assayed in a highly parallel fashion by using multiwell plates by placing the compounds either individually in wells or testing them in mixtures. Assay components including the target protein complex, coupling enzymes and substrates, and ATP can then be added to the wells and the absorbance or fluorescence of each well of the plate can be measured with a plate reader.
In some embodiments, the method uses a 384 well plate format and a 25 μL reaction volume. A pyruvate kinase/lactate dehydrogenase coupled enzyme system (Huang T G and Hackney D D. (1994) J Biol Chem 269(23):16493-501) can be used to measure the rate of ATP hydrolysis in each well. As will be appreciated by those in the art, the assay components are added in buffers and reagents. The incubation periods can be optimized to give adequate detection signals over the background. The assay can be done in real time giving the kinetics of ATP hydrolysis which increases the signal to noise ratio of the assay.
Actin was purified by first preparing an ether powder of cardiac muscle (Zot H G and Potter J D. (1981) Preparative Biochemistry 11:381-395) as described below. Subsequently, actin was cycled between the filamentous and soluble state through rounds of centrifugation and dialysis (Spudich J A and Watt S. (1971) J. Biol. Chem. 246:4866-4871). It was stored in the filamentous state at 4° C.
Tropomyosin was extracted from the ether powder and separated from the other proteins based on pH dependent precipitations followed by successive ammonium sulfate cuts at 53% and 65% (Smillie L B. (1981) Methods Enzymol 85 Pt B:234-41). The troponins were isolated as an intact complex of TnC, TnT, and TnI. Ether powder is extracted in a high salt buffer. Successive ammonium sulfate cuts of 30% and 45% were done; the precipitate was solubilized by dialysis into a low salt buffer and then further purified on a DEAE Toyopearl column with a 25-350 mM KCl gradient.
Just prior to screening, the actin, tropomyosin, and troponin complex are mixed together in the desired ratio (e.g., 7:1:1) to achieve maximal calcium regulation of the actin filament. The screen is conducted at a pCa=6.5. This calcium concentration is in the physiological range during muscle contraction.
To measure the generation of ADP during the reaction, a pyruvate kinase/lactate dehydrogenase/NADH coupled enzyme system (PK/LDH) is added to the actin. The myosin is kept separately. The plates are read in real time so that kinetic curves are obtained. These compounds are in DMSO and were already spotted onto the bottoms of 384 well plates at 10 to 40 μg/ml final concentration.
• 1. Obtain ˜1000 g skeletal muscle, such as rabbit skeletal muscle. • 2. Grind twice; extract with 2 L solution A for 15 min while stirring; add 4 L cold H2O, filter through gauze; dilute with cold H2O to ionic strength of 0.04, (about 10-fold); let settle for 3 h; collect precipitate at 7,000 rpm in GSA rotor for 15 min. • 3. Disperse pellet in 220 ml solution B; dialyze overnight against 6 L solution C; slowly add ˜400 ml equal volume cold distilled H2O; stir for 30 min; centrifuge at 10,000 rpm for 10 min in GSA rotor. • 4. Centrifuge supernatant at 19,000 rpm for 1 h. • 5. Dilute supernatant to ionic strength of 0.04 (˜8-fold); let myosin settle overnight; collect about 5-6 L fluffy myosin precipitate by centrifuging at 10,000 rpm for 10 min in GSA rotor. • 6. Resuspend pellet in minimal volume of solution G; dialyze overnight against 2 L solution D; centrifuge at 19,000 rpm for 2 h, in cellulose nitrate tubes; puncture tubes and separate myosin from fat and insoluble pellet. • 7. Dilute supernatant to 5-10 mg/ml and dialyze against solution E extensively, load onto DEAE-sephadex column. • 8. […]

[1] = test system: rats with induced experimental autoimmune myasthenia gravis (EAMG); experiment: Validation of EAMG model (neostigmine), grip strength; type: in vivo, Sprague-Dawley rats; details: 0.2 mg/kg intraperitoneally, 5 minutes after treatment
Protocol: Female Sprague-Dawley rats (200-300 g) were purchased from Charles River Laboratories and given a minimum 72 hours acclimation period. Experimental autoimmune Myasthenia Gravis (EAMG) was induced by a single intra-peritoneal injection of 500 μg/kg of AChRα1/3/5 antibody (SC-58604, Santa Cruz Biotechnology, CA, USA). Fore- and hind-limb grip measurements were acquired in triplicate with a 5 kg Dual Sensor Grip Meter (Columbus Instruments, Ohio, USA) as described in Example 1. Baseline body weight and fore- and hind-grip strength of animals was measured before inducing EAMG.
Selected rats were divided into vehicle and compound treated groups. Neostigmine (an acetylcholinesterase inhibitor that is used clinically for the assessment and treatment of myasthenia gravis) was administered to test animals intraperitoneally at 0.2 mg/kg. After dosing, rats were reassessed for grip strength at 5, 10 and 20 minutes.

Compound | SKM MF AC1.4 (SKM MF) | further results
Oc1nc2ncc(Br)nc2n1Cc1ccccc1 [1-benzyl-6-bromo-1H-imidazo[4,5-b]pyrazin-2-ol] | 23.5 µM | –
C/C=C/c1cnc2nc(O)n([C@@H](C)c3ccccc3)c2n1 [(S,E)-1-(1-phenylethyl)-6-(prop-1-enyl)-1H-imidazo[4,5-b]pyrazin-2-ol] | 1.6 µM | –
C/C=C/c1cnc2nc(O)n(C(C)C)c2n1 [(E)-1-isopropyl-6-(prop-1-enyl)-1H-imidazo[4,5-b]pyrazin-2-ol] | 7.1 µM | –
CCC(C(=O)O)n1c(O)nc2ncc(Br)nc21 (stereo not drawn) [2-(6-bromo-2-hydroxy-1H-imidazo[4,5-b]pyrazin-1-yl)butanoic acid] | >49 µM | –
CC[C@@H](CO)n1c(O)nc2ncc(Br)nc21 [(S)-6-bromo-1-(1-hydroxybutan-2-yl)-1H-imidazo[4,5-b]pyrazin-2-ol] | 19.1 µM | –
CCC(CC)n1c(O)nc2nccnc21 [1-(pentan-3-yl)-1H-imidazo[4,5-b]pyrazin-2-ol] | 16.0^† μM | –
CCC(CC)n1c(O)nc2nc3ccccc3nc21 [1-(pentan-3-yl)-1H-imidazo[4,5-b]quinoxalin-2-ol] | 19.8 µM | –
CCC(CC)n1c(O)nc2ncc(N(C)C)nc21 [6-(dimethylamino)-1-(pentan-3-yl)-1H-imidazo[4,5-b]pyrazin-2-ol] | 2.2 µM and 2.79 µM | –
CCC(CN(C)C)n1c(O)nc2ncc(Br)nc21 (stereo not drawn) [6-bromo-1-(1-(dimethylamino)butan-2-yl)-1H-imidazo[4,5-b]pyrazin-2-ol] | 43.8 µM | –
CCC(CN1CCOCC1)n1c(O)nc2nccnc21 (stereo not drawn) [1-(1-morpholinobutan-2-yl)-1H-imidazo[4,5-b]pyrazin-2-ol] | >49 µM | –
C/C=C\c1cnc2nc(O)n(C3CCCCC3)c2n1 [(Z)-1-cyclohexyl-6-(prop-1-enyl)-1H-imidazo[4,5-b]pyrazin-2-ol] | 6.0 µM | –
1-(ethylpropyl)-6-(methylethyl)imidazo[4,5-b]pyrazin-2-ol | 29.6 µM | –
CCC(CN1CCN(C(=O)OC)CC1)n1c(O)nc2ncc(Br)nc21 (stereo not drawn) [methyl 4-(2-(6-bromo-2-hydroxy-1H-imidazo[4,5-b]pyrazin-1-yl)butyl)piperazine-1-carboxylate] | 0.9^† μM | –
CCCc1cnc2nc(O)n([C@@H](C)c3ccccc3)c2n1 [(S)-1-(1-phenylethyl)-6-propyl-1H-imidazo[4,5-b]pyrazin-2-ol] | 29.7 µM | –
Oc1nc2ncc(Br)nc2n1C1CCCCC1 [6-bromo-1-cyclohexyl-1H-imidazo[4,5-b]pyrazin-2-ol] | 10.4 µM | –
COc1cnc2nc(O)n([C@@H](C)c3ccccc3)c2n1 [(S)-6-methoxy-1-(1-phenylethyl)-1H-imidazo[4,5-b]pyrazin-2-ol] | 8.8 µM | –

Compound | SKM MF AC1.4 (SKM MF) | further results
C=Cc1cnc2nc(O)n([C@@H](C)c3ccccc3)c2n1 [(S)-1-(1-phenylethyl)-6-vinyl-1H-imidazo[4,5-b]pyrazin-2-ol] | 2.4 µM | –
CN(C)C(=O)Oc1cccc([N+](C)(C)C)c1 [neostigmine] | – | forelimb grip strength (FIG. 2) [1]: increased forelimb grip strength
C/C=C\c1cnc2nc(O)n(C(CC)CC)c2n1 [(Z)-1-(pentan-3-yl)-6-(prop-1-enyl)-1H-imidazo[4,5-b]pyrazin-2-ol] | 0.6 µM | –
C#Cc1cnc2nc(O)n([C@H](CC)CN3CCOCC3)c2n1 [1-[(1R)-1-(morpholin-4-ylmethyl)propyl]-6-ethynylimidazo[4,5-b]pyrazin-2-ol] | 0.13 µM | –
CC[C@H](C)n1c(O)nc2ncc(Br)nc21 [(S)-6-bromo-1-sec-butyl-1H-imidazo[4,5-b]pyrazin-2-ol] | 0.8 µM | –
1-(ethylpropyl)-6-(1-methylvinyl)imidazo[4,5-b]pyrazin-2-ol | 0.6 µM | –
CCC(CN)n1c(O)nc2ncc(Br)nc21 (stereo not drawn) [1-(1-aminobutan-2-yl)-6-bromo-1H-imidazo[4,5-b]pyrazin-2-ol] | 1.1 µM | –
CC#Cc1cnc2nc(O)n(C(CC)CC)c2n1 [1-(pentan-3-yl)-6-(prop-1-ynyl)-1H-imidazo[4,5-b]pyrazin-2-ol] | >49 µM | –
CCC(CC)n1c(O)nc2ncc(Br)nc21 [6-bromo-1-(pentan-3-yl)-1H-imidazo[4,5-b]pyrazin-2-ol] | 0.25 µM | –
CCC(CN1CCN(C)CC1)n1c(O)nc2ncc(Br)nc21 (stereo not drawn) [6-bromo-1-(1-(4-methylpiperazin-1-yl)butan-2-yl)-1H-imidazo[4,5-b]pyrazin-2-ol] | 14.9 µM | –
CSc1cnc2nc(O)n([C@@H](C)c3ccccc3)c2n1 [(S)-6-(methylthio)-1-(1-phenylethyl)-1H-imidazo[4,5-b]pyrazin-2-ol] | 1.1 µM | –
CCC(CC)n1c(O)nc2ncc(C(F)(F)F)nc21 [1-(pentan-3-yl)-6-(trifluoromethyl)-1H-imidazo[4,5-b]pyrazin-2-ol] | 10.4^‡ μM | SKM MF AC1.4 (SKM MF; listed as 1-(ethylpropyl)-6-(trifluoromethyl)imidazo[4,5-b]pyrazin-2-ol): 10.37 µM; SKM MF AC1.4 (SKM MF; listed as 1-(pentan-3-yl)-6-(trifluoromethyl)-1H-imidazo[4,5-b]pyrazin-2(3H)-one): 10.4^‡ μM
CCC(CC)n1c(O)nc2nc(Br)cnc21 [5-bromo-1-(pentan-3-yl)-1H-imidazo[4,5-b]pyrazin-2-ol] | 11.5 µM | –
C[C@H](c1ccccc1)n1c(O)nc2ncc(Br)nc21 [(R)-6-bromo-1-(1-phenylethyl)-1H-imidazo[4,5-b]pyrazin-2-ol] | 2.4 µM | –
6-(1H-1,2,3-triazol-4-yl)-1-(ethylpropyl)imidazo[4,5-b]pyrazin-2-ol | 46.64 µM | –
